# Results: paper PMC9725750, “The clinical pharmacology of tafenoquine in the radical cure of Plasmodium vivax malaria: An individual patient data meta-analysis” (eLife, 2022)
# What was measured:
# Plasmodium vivax = experiment: Radical cure efficacy: any P. vivax recurrence within 4 months in patients, pooled DETECTIVE part 1/2 and GATHER (logistic regression and Emax models); type: in vivo, human; conditions: for mean recurrence proportion: empirical weight distribution
# Excerpt: The primary endpoint for the main efficacy analyses was any P. vivax recurrence within 4 months. We chose the binary endpoint of any recurrence rather than the time to first recurrence because tafenoquine has both asexual stage antimalarial activity ([Fukuda et al., 2017]) and hypnozoiticidal activity. […] The choice of a particular cut-off for follow-up is thus a trade-off between sensitivity and specificity. Longer follow-up will increase the sensitivity of the endpoint (include more relapses) but decrease specificity (include more reinfections).
# For all predictors we fitted Bayesian mixed effects logistic regression models (random intercepts for study and study site), with adjustment for day 0 parasitaemia (log transformed). Logistic regression allows inference of the odds-ratio for recurrence for the predictive variable of interest, assuming a linear relationship between the predictive variable and log-odds for recurrence.
# For the mg/kg dose (the primary predictor of interest), the dose-response relationship was then assessed under a Bayesian Emax model, where the dose-dependent logit probability of recurrence is defined as: Emax(d,x)=α+βx+δd^k/d^k+γ^k,
# The Emax model was also fitted with random intercepts for study and study site.
# To determine the main predictors of recurrence, we fitted a multivariable penalised Bayesian logistic regression model. This included the following variables as predictors: the tafenoquine mg/kg dose; the plasma tafenoquine AUC[0,∞); the plasma tafenoquine Cmax; the day 7 MetHb concentration (%); the terminal elimination half-life t1/2; and the baseline parasite density. The model included random intercept terms for each study and study site. […] To avoid convergence issues resulting from the co-linearity of the predictors, the prior on all non-hierarchical coefficients was set to a Normal(0,0.5). This prior effectively shrinks the regression coefficients towards zero. It can be interpreted as follows: plausible odds-ratios for recurrence for one standard deviation change for each of the fixed effect predictors lie approximately between 0.38 and 2.7).
# In a priori sensitivity analyses, all recurrences up until 6 months were included as both binary and time to event outcomes. The time to first recurrence was defined as a P. vivax episode between day 7 and day 180 with right censoring at the last recorded visit. We also re-ran the same models in patients who received a 300 mg single dose of tafenoquine only (i.e. the current recommended treatment).
# blood MetHb = experiment: Blood methaemoglobin (MetHb) concentration on day 7 by pulse CO-oximeter; type: in vivo, human
# Excerpt: All patients in the phase 1 trial and the three efficacy trials had frequent blood MetHb measurements taken using non-invasive signal extraction pulse CO-oximeter handheld machines. For the three efficacy trials, we excluded measurements taken at or after recurrence of vivax malaria. Because erroneous readings from the handheld oximeters can occur, we inspected visually the longitudinal MetHb curves for each patient. […] All patients from this site were excluded from the MetHb analysis ( n =91), resulting in a total of 9632 MetHb measurements across 746 P. vivax infected patients and 72 healthy volunteers.
# [1] = Tolerability and safety: acute vomiting, severe haemolysis, haemoglobin change; type: in vivo, human; conditions: for Hb change to day 2/3 / Hb change to day 7±1: mean (sd)
# Experimental: For tolerability, acute vomiting was defined as vomiting within 1 hr of tafenoquine dosing, and for safety, three definitions of severe haemolysis were assessed:
# • Relative fall in haemoglobin by more than 25% to <7 g/dL • Absolute fall in haemoglobin greater than 5 g/dL • Any haemoglobin fall to <5 g/dL
# Tolerability and safety events were categorised according to tafenoquine treatment and doses (no tafenoquine, <3.75 mg/kg tafenoquine, [3.75,6.25) mg/kg tafenoquine, [6.25,8.75) mg/kg tafenoquine, ≥8.75 mg/kg tafenoquine). The change in haemoglobin concentration from day 0 to the minimum on day 2 or 3, the expected day of nadir ([Commons et al., 2019]), was calculated to assess changes in haemoglobin associated with tafenoquine dose. Mixed effects models were used to explore the association between tafenoquine mg/kg dose, day 7 MetHb concentration, AUC[0,∞) , Cmax, and t1/2 adjusting for age, sex, day 0 parasite density and day 0 haemoglobin, with random effects for study and site.
# [2] = parameters: method as in Shanks et al., 2001; conditions: ref Shanks et al., 2001, cited from earlier work
# [3] = all tafenoquine-treated patients
smiles,measurement,setting,value
COc1cc(C)c2c(Oc3cccc(C(F)(F)F)c3)c(OC)cc(NC(C)CCCN)c2n1 (centres unmarked) [tafenoquine],reduction of recurrence rates,Plasmodium vivax; 300 mg fixed dose vs no 8-aminoquinoline treatment,around 70%
same,reduction of recurrence rates,Plasmodium vivax; 450 mg fixed dose vs no 8-aminoquinoline treatment,around 85%
same,mean recurrence proportion,"Plasmodium vivax; 450 mg fixed dose, 95% CI 3.2–11.5",6.2%
same,mean estimated recurrence proportion at 4 months,"Plasmodium vivax; Emax model, 3 mg/kg",28.5%
same,mean estimated recurrence proportion at 4 months,"Plasmodium vivax; Emax model, 4 mg/kg",20.8%
same,mean estimated recurrence proportion at 4 months,"Plasmodium vivax; Emax model, 5 mg/kg",14.2%
same,proportion of the maximal obtainable hypnozoiticidal effect,"Plasmodium vivax; Emax model, 300 mg dose in a 60 kg adult (5 mg/kg)",70%
same,reduction in the risk of P. vivax recurrence,"Plasmodium vivax; Emax model, dose 7.5 mg/kg (i.e. 450 mg)",90%
same,proportion of the effect achieved with 15 mg/kg,"Plasmodium vivax; Emax model, dose of approximately 7.5 mg/kg, 15 mg/kg taken as maximum tolerated single dose",90%
same,Recurrence at 4 months,"Plasmodium vivax; TQ <3.75 mg/kg single dose + chloroquine, n=169",57 (33.7) total number (%)
same,Recurrence at 4 months,"Plasmodium vivax; TQ [3.75,6.25) mg/kg single dose + chloroquine, n=368",79 (21.5) total number (%)
same,Recurrence at 4 months,"Plasmodium vivax; TQ [6.25,8.75) mg/kg single dose + chloroquine, n=54",4 (7.4) total number (%)
same,Recurrence at 4 months,"Plasmodium vivax; TQ ≥8.75 mg/kg single dose + chloroquine, n=43, 8.75 mg/kg",No recurrences
same,Recurrence at 4 months,"Plasmodium vivax; TQ ≥8.75 mg/kg single dose + chloroquine, n=43, listed as TQ, 8.75 mg/kg",0 (0) total number (%)
same,number needed to treat to prevent one additional recurrence of malaria,"Plasmodium vivax; adult dose increased from 300 mg to 450 mg, Emax model, 95% CI 7–21",11 patients
same,effect on recurrence rates at 4 months of increasing dosing recommendation from 300mg to 450mg,Plasmodium vivax; body weight distribution as in pre-registration trials,more than halve
same,OR for recurrence per mg/kg increase,"Plasmodium vivax; data from DETECTIVE part 1 only, 95% CI 0.52–0.72",0.62
same,mean recurrence proportion,"Plasmodium vivax; fixed 300 mg dose in an adult, 95% CI 9.6–21.7",15.3%
same,mean probability of recurrence at 4 months,"Plasmodium vivax; logistic model estimate, following 5 mg/kg tafenoquine, 95% CI 0.10–0.23",0.15
same,odds-ratio (OR) for recurrence within 4 months per additional mg/kg of tafenoquine,"Plasmodium vivax; logistic regression, all data n=1073, 95% CI 0.65–0.76",0.70
same,odds ratio for recurrence per absolute percentage point increase in the day 7 MetHb concentration,"Plasmodium vivax; logit-Emax model adjusted for mg/kg dose, 95% CI 0.65 to 0.99",0.81
same,OR for recurrence within 4 months per mg/kg tafenoquine,"Plasmodium vivax; restricted to patients who received 300 mg dose, n=469, 95% CI 0.51–0.85",0.66
same,odds ratio for recurrence at 4 months for each day increase in t1/2,"Plasmodium vivax; weight-adjusted t1/2, adjusted for mg/kg dose, 95% CI 1.06–1.25",1.15
same,increase in day 7 MetHb concentrations per additional mg/kg,blood MetHb; 95% CI 17% to 21%,19%
same,lower day 7 methaemoglobinaemia in healthy volunteers compared to patients infected with P. vivax,"blood MetHb; adjusted for mg/kg dose, 95% CI 0 to 34%, p=0.02",15%
same,day of peak MetHb levels,blood MetHb; after single dose tafenoquine + chloroquine,~7 days
same,additional mean haemoglobin reduction at day 2 or 3,[1]; 300 mg dose in a 60 kg adult,around 0.1 g/dL
same,"additional mean reduction in Hb at day 2 or 3, relative",[1]; 300 mg dose in a 60 kg adult,< 1%
same,patients who vomited within 1 hour of oral administration,[1]; 15/651 patients,2.3%
same,haemoglobin increase per one day increase in terminal elimination half-life,[1]; 95% CI 0.01 to 0.04,0.02 g/dL
same,OR for vomiting per mg/kg increase,[1]; 95% CI 0.88–1.32,1.08
same,change in haemoglobin concentration per one percent increase in day 7 MetHb,"[1]; Hb on day 2 or 3, 95% CI –0.12 to –0.03",–0.08 g/dL
same,Absolute Hb fall >5 g/dL,"[1]; TQ 3.75-<6.25mg/kg, n=378",1 (0.3%) n (%)
same,Hb fall >25% to<7 g/dL,"[1]; TQ 3.75-<6.25mg/kg, n=378",0 (0%) n (%)
same,Hb fall to <5 g/dL,"[1]; TQ 3.75-<6.25mg/kg, n=378",0 (0%) n (%)
same,Absolute Hb fall >5 g/dL,"[1]; TQ 6.25-<8.75mg/kg, n=56",0 (0%) n (%)
same,Hb fall >25% to<7 g/dL,"[1]; TQ 6.25-<8.75mg/kg, n=56",0 (0%) n (%)
same,Hb fall to <5 g/dL,"[1]; TQ 6.25-<8.75mg/kg, n=56",0 (0%) n (%)
same,Absolute Hb fall >5 g/dL,"[1]; TQ <3.75mg/kg, n=171",0 (0%) n (%)
same,Hb fall >25% to<7 g/dL,"[1]; TQ <3.75mg/kg, n=171",0 (0%) n (%)
same,Hb fall to <5 g/dL,"[1]; TQ <3.75mg/kg, n=171",0 (0%) n (%)
same,Absolute Hb fall >5 g/dL,"[1]; TQ > 8.75mg/kg, n=44",0 (0%) n (%)
same,Hb fall >25% to<7 g/dL,"[1]; TQ > 8.75mg/kg, n=44",0 (0%) n (%)
same,Hb fall to <5 g/dL,"[1]; TQ > 8.75mg/kg, n=44",0 (0%) n (%)
same,patients with a fall in Hb to less than 5 g/dL,[1]; [3],no patients
same,patients with greater than 5 g/dL fall in Hb,[1]; [3],One patient
same,patients with greater than 25% fall in Hb to <7 g/dL,[1]; [3],no patients
same,mean haemoglobin reduction at day 2 or 3,[1]; dose increased to 450 mg,0.15 g/dL
same,Hb change to day 2/3,"[1]; TQ 3.75-<6.25mg/kg, n=378",–0.7 (0.9)
same,Hb change to day 7±1,"[1]; TQ 3.75-<6.25mg/kg, n=378",–0.4 (1.1)
same,Hb change to day 2/3,"[1]; TQ 6.25-<8.75mg/kg, n=56",–0.8 (0.8)
same,Hb change to day 7±1,"[1]; TQ 6.25-<8.75mg/kg, n=56",–0.4 (1.0)
same,Hb change to day 2/3,"[1]; TQ <3.75mg/kg, n=171",–0.6 (0.9)
same,Hb change to day 7±1,"[1]; TQ <3.75mg/kg, n=171",–0.3 (0.9)
same,Hb change to day 2/3,"[1]; TQ > 8.75mg/kg, n=44",–0.6 (1.1)
same,Hb change to day 7±1,"[1]; TQ > 8.75mg/kg, n=44",–0.3 (1.3)
same,haemoglobin change at day 2 or 3 per additional mg/kg of tafenoquine,"[1]; mixed effects linear regression, 95% CI –0.04 to 0.00, P=0.02",–0.02 g/dL
same,haemolytic outcome,"[2]; female heterozygous for G6PD deficiency (A- variant), total dose 1200 mg over 3 days",severe haemolytic reaction
same,drop in haemoglobin,"[2]; homozygous G6PD deficient female (A- variant), 1200 mg over 3 days, remained asymptomatic",~3 g/dL
